Source: patent US20250163104A1, “MACROCYCLIC IMMUNOMODULATORS” (priority 2021, published 2025)
Where a SMILES comes first, the peptide text is derived from it. Bridges are numbered along the chain shown (N, C = ends). [ ]: non-standard residue; d: D form. The star is where a group is joined. ξ: configuration not given here. Phe(4-COOH) = N[C@@H](Cc1ccc(C(=O)O)cc1)C(=O)O; Phe(4-CH2NH2) = NCc1ccc(C[C@H](N)C(=O)O)cc1; Bip = N[C@@H](Cc1ccc(-c2ccccc2)cc1)C(=O)O; Phe(3-Me) = Cc1cccc(C[C@H](N)C(=O)O)c1; Val(3-OH) = CC(C)(O)[C@H](N)C(=O)O; 4Pal = N[C@@H](Cc1ccncc1)C(=O)O; Cha = N[C@@H](CC1CCCCC1)C(=O)O; Thr(3ξ) = CC(O)[C@H](N)C(=O)O; Carboxymethyl = O=C(O)C*; Orn = NCCC[C@H](N)C(=O)O; Dab = NCC[C@H](N)C(=O)O; Dap = NC[C@H](N)C(=O)O; Propargyl = C#CC*

The molecules below were run against T1, human PD-1 / PD-L1-Ig binding on Jurkat cell line over-expressing human PD-1 (Jurkat-PD-1) (Homo sapiens, UniProt Q15116) (assay: Jurkat-PD-1 Cell Binding High-Content Screening Assay (CBA)). Conditions: Jurkat-PD-1 cells, PE-labeled PD-L1-Ig 20 nM final; read-out: Jurkat HPD1_PDL1 IC50.
T1 construct: expressed in transfected cells; host or cells: Jurkat
T1 sequence (Q15116 25-288): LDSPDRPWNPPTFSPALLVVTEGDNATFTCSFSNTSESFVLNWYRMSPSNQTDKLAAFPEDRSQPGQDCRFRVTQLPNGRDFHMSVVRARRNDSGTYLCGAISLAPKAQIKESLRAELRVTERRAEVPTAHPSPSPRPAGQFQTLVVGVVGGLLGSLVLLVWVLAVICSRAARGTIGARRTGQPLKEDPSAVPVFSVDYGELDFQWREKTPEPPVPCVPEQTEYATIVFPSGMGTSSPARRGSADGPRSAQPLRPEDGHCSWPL
Format: cell-based
Method in brief: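 Cell-bound PE-labeled PD-L1-Ig (20 nM final, 1 h) measured by high-content imaging after fixation and Hoechst 33342 counterstain. Compound was applied first for 2 h at 37° C. to Jurkat cells over-expressing human PD-1 in DMEM with 10% FCS.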

SMILES | IC50 [nM]
CC(C)C[C@H]1NC(=O)[C@H](CCCN)NC(=O)[C@H](C(C)C)NC(=O)[C@H](Cc2ccc(-c3ccccc3)cc2)NC(=O)[C@H](C(C)C)NC(=O)[C@H](Cc2c[nH]c3ccccc23)NC(=O)[C@H](CC(=O)O)NC(=O)[C@H](Cc2ccc(OCC(=O)O)cc2)NC(=O)[C@H](Cc2ccncc2)NC(=O)CSC[C@@H](C(=O)N[C@@H](CCN)C(N)=O)NC(=O)[C@H](C(C)O)NC(=O)[C@H](C(C)(C)O)NC(=O)[C@H](CC2CCCCC2)NC(=O)[C@H](CCN)NC1=O (stereo partly drawn) [Compound 2629] ({CH2CO}-[4Pal]Y(Carboxymethyl)DWV[Bip]V[Orn][dL][Dab][Cha][Val(3-OH)][Thr(3ξ)]C[Dab]-NH2; thioether N-14) | 10.6
CC(C)C[C@H]1NC(=O)[C@H](CCCN)NC(=O)[C@H](C(C)C)NC(=O)[C@H](Cc2ccc(-c3ccccc3)cc2)NC(=O)[C@H](C(C)C)NC(=O)[C@H](Cc2c[nH]c3ccccc23)NC(=O)[C@H](CC(=O)O)NC(=O)[C@H](Cc2ccc(OCC(=O)O)cc2)NC(=O)[C@H](CN)NC(=O)CSC[C@@H](C(=O)N[C@@H](C)C(N)=O)NC(=O)[C@H]([C@@H](C)O)NC(=O)[C@H](C(C)C)NC(=O)[C@H](CC2CCCCC2)NC(=O)[C@H](CCC(N)=O)NC1=O [Compound 1520] ({CH2CO}-[Dap]Y(Carboxymethyl)DWV[Bip]V[Orn][dL]Q[Cha]VTCA-NH2; thioether N-14) | 10.5
CC(C)C[C@H]1NC(=O)[C@H](CCCN)NC(=O)[C@H](C(C)C)NC(=O)[C@H](Cc2ccc(-c3ccccc3)cc2)NC(=O)[C@H](C(C)C)NC(=O)[C@H](Cc2c[nH]c3ccccc23)NC(=O)[C@H](CC(=O)O)NC(=O)[C@H](Cc2ccc(OCC(=O)O)cc2)NC(=O)[C@H](C(C)O)NC(=O)CSC[C@@H](C(=O)N[C@@H](CC(N)=O)C(N)=O)NC(=O)[C@H](CO)NC(=O)[C@H](C(C)C)NC(=O)[C@H](CC2CCCCC2)NC(=O)[C@H](CCN)NC1=O (stereo partly drawn) [Compound 2550] ({CH2CO}-[Thr(3ξ)]Y(Carboxymethyl)DWV[Bip]V[Orn][dL][Dab][Cha]VSCN-NH2; thioether N-14) | 4.9
CC(C)C[C@H]1NC(=O)[C@H](CCCN)NC(=O)[C@H](C(C)C)NC(=O)[C@H](Cc2ccc(-c3ccccc3)cc2)NC(=O)[C@H](C(C)C)NC(=O)[C@H](Cc2c[nH]c3ccccc23)NC(=O)[C@H](CC(=O)O)NC(=O)[C@H](Cc2ccc(C(=O)O)cc2)NC(=O)[C@H](Cc2ccc(OCC(=O)O)cc2)NC(=O)CSC[C@@H](C(=O)N[C@@H](C)C(N)=O)NC(=O)[C@H]([C@@H](C)O)NC(=O)[C@H](C(C)C)NC(=O)[C@H](Cc2ccccc2)NC(=O)[C@H](CCN)NC1=O [Compound 1662] ({CH2CO}-Y(Carboxymethyl)[Phe(4-COOH)]DWV[Bip]V[Orn][dL][Dab]FVTCA-NH2; thioether N-14) | 27.4
C#CCOc1ccc(C[C@@H]2NC(=O)[C@H](Cc3cccc(C)c3)NC(=O)[C@H](CC(=O)O)NC(=O)[C@H](Cc3ccc(C(=O)O)cc3)NC(=O)[C@H](CN)NC(=O)CSC[C@@H](C(=O)N[C@@H](CCN)C(N)=O)NC(=O)[C@H]([C@@H](C)O)NC(=O)[C@H](C(C)C)NC(=O)[C@H](CC3CCCCC3)NC(=O)[C@H](CCN)NC(=O)[C@@H](CC(C)C)NC(=O)[C@H](CCCN)NC(=O)[C@H](C(C)C)NC(=O)[C@H](Cc3ccc(-c4ccccc4)cc3)NC2=O)cc1 [Compound 2022] ({CH2CO}-[Dap][Phe(4-COOH)]D[Phe(3-Me)]Y(Propargyl)[Bip]V[Orn][dL][Dab][Cha]VTC[Dab]-NH2; thioether N-14) | 6.9
CC(C)C[C@@H]1NC(=O)[C@H](Cc2c[nH]c3ccccc23)NC(=O)[C@H](CC(=O)O)NC(=O)[C@H](Cc2ccc(O)cc2)NC(=O)[C@H](Cc2ccccc2)NC(=O)CSC[C@@H](C(=O)NCC(N)=O)NC(=O)[C@H](CO)NC(=O)[C@H](C(C)C)NC(=O)[C@H](CC(C)C)NC(=O)[C@H](CC(N)=O)NC(=O)[C@@H](C)NC(=O)[C@H](CCN)NC(=O)[C@H](C(C)C)NC(=O)[C@H](Cc2ccc(-c3ccccc3)cc2)NC1=O [Compound 1102] ({CH2CO}-FYDWL[Bip]V[Dab][dA]NLVSCG-NH2; thioether N-14) | 71.1

Further molecules by falling IC50, results first:

IC50 [nM] | SMILES
104 | CC(C)C[C@H]1NC(=O)[C@H](CCCN)NC(=O)[C@H](C(C)C)NC(=O)[C@H](Cc2ccc(-c3ccccc3)cc2)NC(=O)[C@H](C(C)C)NC(=O)[C@H](Cc2c[nH]c3ccccc23)NC(=O)[C@H](CC(=O)O)NC(=O)[C@H](Cc2ccc(OCC(=O)O)cc2)NC(=O)[C@H](Cc2ccc(OCC(=O)O)cc2)NC(=O)CSC[C@@H](C(=O)N[C@@H](C)C(N)=O)NC(=O)[C@H]([C@@H](C)O)NC(=O)[C@H](C(C)C)NC(=O)[C@H](Cc2ccc(O)cc2)NC(=O)[C@H](CCN)NC1=O [Compound 1683] ({CH2CO}-Y(Carboxymethyl)Y(Carboxymethyl)DWV[Bip]V[Orn][dL][Dab]YVTCA-NH2; thioether N-14)
10.9 | Cc1cccc(C[C@@H]2NC(=O)[C@H](CC(=O)O)NC(=O)[C@H](Cc3ccc(C(=O)O)cc3)NC(=O)[C@H](CN)NC(=O)CSC[C@@H](C(N)=O)NC(=O)[C@H](CO)NC(=O)[C@H](C(C)C)NC(=O)[C@H](CC3CCCCC3)NC(=O)[C@H](CCN)NC(=O)[C@@H](CC(C)C)NC(=O)[C@H](CCCN)NC(=O)[C@H](C(C)C)NC(=O)[C@H](Cc3ccc(-c4ccccc4)cc3)NC(=O)[C@H](Cc3ccc(CN)cc3)NC2=O)c1 [Compound 2031] ({CH2CO}-[Dap][Phe(4-COOH)]D[Phe(3-Me)][Phe(4-CH2NH2)][Bip]V[Orn][dL][Dab][Cha]VSC-NH2; thioether N-14)
5.7 | Cc1cccc(C[C@@H]2NC(=O)[C@H](CC(=O)O)NC(=O)[C@H](Cc3ccc(C(=O)O)cc3)NC(=O)[C@H](Cc3ccncc3)NC(=O)CSC[C@@H](C(=O)N[C@@H](CCN)C(N)=O)NC(=O)[C@H](CO)NC(=O)[C@H](C(C)(C)O)NC(=O)[C@H](CC3CCCCC3)NC(=O)[C@H](CCN)NC(=O)[C@@H](CC(C)C)NC(=O)[C@H](CCCN)NC(=O)[C@H](Cc3ccc(OCC(=O)O)cc3)NC(=O)[C@H](Cc3ccc(-c4ccccc4)cc3)NC(=O)[C@H](Cc3ccc(C(=O)O)cc3)NC2=O)c1 [Compound 2624] ({CH2CO}-[4Pal][Phe(4-COOH)]D[Phe(3-Me)][Phe(4-COOH)][Bip]Y(Carboxymethyl)[Orn][dL][Dab][Cha][Val(3-OH)]SC[Dab]-NH2; thioether N-14)
4 | Cc1cccc(C[C@@H]2NC(=O)[C@H](CC(=O)O)NC(=O)[C@H](Cc3ccc(C(=O)O)cc3)NC(=O)[C@H](Cc3ccncc3)NC(=O)CSC[C@@H](C(=O)N[C@@H](CC(N)=O)C(N)=O)NC(=O)[C@H]([C@@H](C)O)NC(=O)[C@H](C(C)C)NC(=O)[C@H](CC3CCCCC3)NC(=O)[C@H](CCN)NC(=O)[C@@H](CC(C)C)NC(=O)[C@H](CCCN)NC(=O)[C@H](Cc3ccc(OCC(=O)O)cc3)NC(=O)[C@H](Cc3ccc(-c4ccccc4)cc3)NC(=O)[C@H](Cc3ccc(OCC(=O)O)cc3)NC2=O)c1 [Compound 2302] ({CH2CO}-[4Pal][Phe(4-COOH)]D[Phe(3-Me)]Y(Carboxymethyl)[Bip]Y(Carboxymethyl)[Orn][dL][Dab][Cha]VTCN-NH2; thioether N-14)
